pEC50, pKi: −log10 of the molar value. Like-named read-outs stand apart in the source and are kept apart here.
Assays:
human 5-HT2C receptor = target: T1, human 5-HT2C receptor (Homo sapiens, UniProt P28335); assay: Binding selectivity for 5-HT6 relative to the human 5-HT2C receptor; conditions: 5-HT6 vs human 5-HT2C receptor
T1 sequence (P28335 33-458): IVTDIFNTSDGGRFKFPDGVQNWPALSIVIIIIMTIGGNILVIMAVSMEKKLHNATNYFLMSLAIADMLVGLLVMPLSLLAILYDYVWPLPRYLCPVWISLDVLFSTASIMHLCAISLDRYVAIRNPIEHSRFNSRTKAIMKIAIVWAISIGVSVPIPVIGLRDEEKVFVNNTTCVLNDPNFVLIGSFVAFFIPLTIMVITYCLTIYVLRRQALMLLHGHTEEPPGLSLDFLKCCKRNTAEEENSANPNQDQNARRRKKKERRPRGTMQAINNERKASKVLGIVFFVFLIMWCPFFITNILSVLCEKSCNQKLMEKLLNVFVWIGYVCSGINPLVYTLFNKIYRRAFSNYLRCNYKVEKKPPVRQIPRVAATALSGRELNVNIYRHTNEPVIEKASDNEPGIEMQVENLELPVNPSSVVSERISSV

human 5-HT7 receptor = human 5-HT7 receptor (Homo sapiens, UniProt P34969); assay: Binding selectivity for 5-HT6 relative to the human 5-HT7 receptor; conditions: 5-HT6 vs human 5-HT7 receptor
human 5-HT6 receptor [1] = target: T2, human 5-HT6 receptor (Homo sapiens, UniProt P50406); assay: Binding affinity for the 5-HT6 receptor (3H-LSD radioligand binding, membranes of cells expressing the 5-HT6 receptor); conditions: 60 minute incubation at 37° C.
T2 construct: expressed in transfected cells
Description: All of the compounds of the invention were evaluated using cell types receptive specifically to the 5-HT6 receptor (for cloning and characterization of the human 5-HT6 receptor see Kohen, et al. J. Neurochemistry, 66, 1996: 47-56). […] After a 60 minute incubation at 37° C., the incubation was terminated by vacuum filtration. The filters were washed with buffer and the filters were counted for radioactivity using liquid scintillation spectrometry. The affinity of the test compound for the 5-HT6 receptor was determined by computer-assisted analysis of the data and determining the amount of the compound necessary to inhibit 50% of the binding of the radioligand to the receptor. Concentrations ranging from 10^-11 M to 10^-5 M of the test compound were evaluated.

human 5-HT6 receptor [2] = target: T2, human 5-HT6 receptor; assay: Effect on the cAMP response of human 5-HT6 receptors in stably transfected HEK293 cells (EIA); assay type: cell-based
Description: The antagonist (or agonist) property of compounds for human 5-HT6 receptors was determined by testing their effect on cAMP accumulation in stably transfected HEK293 cells.
Binding of an agonist to the human 5-HT6 receptor will lead to a increase in adenyl cyclase activity. A compound which is an agonist will show an increase in cAMP production and a compound which is an antagonist will block the agonist effect.
Cell Assay: Human 5-HT6 receptors were cloned and stably expressed in HEK293 cells. These cells were plated in 6 well plates in DMEM/F12 media with 10% fetal calf serum (FCS) and 500 μg/mL G418 and incubated at 37° C. in a CO2 incubator. The cells were allowed to grow to about 70% confluence before initiation of the experiment.
On the day of the experiment, the culture media was removed, and the cells were washed once with serum free medium (SFM). Two mL of SFM+IBMX media was added and incubated at 37° C. for 10 min. The media were removed and fresh SFM+IBMX media containing various compounds, and 1 μM serotonin (as antagonist) were added to the appropriate wells and incubated for 30 min. Following incubation, the media were removed and the cells were washed once with 1 mL of PBS (phosphate buffered saline). Each well was treated with 1 mL cold 95% ethanol and 5 mM EDTA (2:1) at 4° C. for 1 hour. The cells were then scraped and transferred into Eppendorf tubes. The tubes were centrifuged for 5 min at 4° C., and the supernatants were stored at 4° C. until assayed.
cAMP Measurement: cAMP content was determined by EIA (enzyme-immunoassay) using the Amersham Biotrak cAMP EIA kit (Amersham RPN 225). The procedure used is as described for the kit. Briefly, cAMP is determined by the competition between unlabeled cAMP and a fixed quantity of peroxidase-labelled cAMP for the binding sites on anti-cAMP antibody. The antibody is immobilized onto polystyrene microtitre wells precoated with a second antibody. […] The reaction is stopped by the addition of 100 μL 1.0 M sulphuric acid and the resultant color read by a microtitre plate spectrophotometer at 450 nM within 30 minutes. […]

T2 sequence (P50406 whole entry): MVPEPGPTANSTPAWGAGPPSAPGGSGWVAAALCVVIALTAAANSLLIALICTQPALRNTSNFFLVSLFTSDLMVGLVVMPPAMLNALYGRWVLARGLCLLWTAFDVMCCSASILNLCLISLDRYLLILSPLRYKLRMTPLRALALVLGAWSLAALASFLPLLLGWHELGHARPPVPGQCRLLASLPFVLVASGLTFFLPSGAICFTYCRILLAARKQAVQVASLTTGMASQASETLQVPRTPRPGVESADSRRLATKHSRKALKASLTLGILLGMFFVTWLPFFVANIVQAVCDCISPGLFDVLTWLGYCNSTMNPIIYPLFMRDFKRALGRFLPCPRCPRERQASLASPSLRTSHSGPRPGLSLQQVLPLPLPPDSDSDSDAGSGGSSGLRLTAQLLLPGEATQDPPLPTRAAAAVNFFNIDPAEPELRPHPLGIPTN
Chain of human 5-HT7 receptor (P34969 whole entry): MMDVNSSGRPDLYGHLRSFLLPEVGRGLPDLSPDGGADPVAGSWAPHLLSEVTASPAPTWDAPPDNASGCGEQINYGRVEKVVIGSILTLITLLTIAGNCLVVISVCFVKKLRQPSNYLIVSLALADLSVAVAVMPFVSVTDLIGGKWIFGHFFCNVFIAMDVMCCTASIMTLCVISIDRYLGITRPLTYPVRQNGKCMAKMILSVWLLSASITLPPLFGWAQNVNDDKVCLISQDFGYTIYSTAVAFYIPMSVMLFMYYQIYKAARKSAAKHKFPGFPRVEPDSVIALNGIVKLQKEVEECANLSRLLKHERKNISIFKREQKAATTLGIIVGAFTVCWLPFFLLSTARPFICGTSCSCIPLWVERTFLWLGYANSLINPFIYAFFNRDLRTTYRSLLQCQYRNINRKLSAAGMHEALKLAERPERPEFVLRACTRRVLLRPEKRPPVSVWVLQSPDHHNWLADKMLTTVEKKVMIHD

Structure (SMILES)	pKi (human 5-HT6 receptor [1]; Ki)	other results
CN1CCC[C@@H]1Cc1cn(C(=O)c2c(Cl)cccc2Cl)c2ccc(OC3CCCCC3)cc12 [Example 5n, (R)-5-Cyclohexyloxy-1-(2,6-dichlorobenzoyl)-3-(1-methyl-2-pyrrolidinylmethyl)indole]	–	greater affinity for human 5-HT6 receptor relative to human 5-HT2C (human 5-HT2C receptor): ≥ 36 fold; greater affinity for human 5-HT6 receptor relative to human 5-HT7 (human 5-HT7 receptor): ≥ 36 fold
Cc1ccc(S(=O)(=O)n2cc(C[C@H]3CCCN3C)c3cc(F)ccc32)cc1 [Example 7c, (R)-5-Fluoro-1-(4-methylphenylsulphonyl)-3-(1-methyl-2-pyrrolidinylmethyl)-indole]	≥ 9.00	–
CN1CCC[C@@H]1Cc1cn(C(=O)c2ccccc2)c2ccc(OC3CCCCC3)cc12 [Example 7a, (R)-5-Cyclohexyloxy-3-(1-methyl-2-pyrrolidinylmethyl)-1-benzoylindole]	≥ 8.00	–
CN1CCC[C@@H]1Cc1cn(S(=O)(=O)c2ccccc2)c2ccc(Cl)cc12 [Example 5d, (R)-5-Chloro-3-(1-methyl-2-pyrrolidinylmethyl)-1-phenylsulfonylindole]	≥ 9.00	pEC50 (human 5-HT6 receptor [2]): 8.08
CN1CCC[C@@H]1Cc1cn(S(=O)(=O)c2ccccc2)c2ccc(OC3CCCCC3)cc12 [Example 4, (R)-5-Cyclohexyloxy-3-(1-methyl-2-pyrrolidinylmethyl)-1-phenylsulfonylindole]	≥ 9.00	–
CN1CCC[C@@H]1Cc1cn(C(=O)c2ccccc2Cl)c2ccc(OC3CCCCC3)cc12 [Example 5j, (R)-1-(2-Chlorobenzoyl)-5-cyclohexyloxy-3-(1-methyl-2-pyrrolidinylmethyl)indole]	–	pEC50 (human 5-HT6 receptor [2]): 7.19
CN1CCC[C@@H]1Cc1cn(C(=O)c2ccccc2)c2ccccc12 [Example 5g, (R)-1-Benzoyl-3-(1-methyl-2-pyrrolidinylmethyl)indole]	≥ 8.00	–
CN1CCC[C@@H]1Cc1cn(S(=O)(=O)c2ccccc2)c2ccc(O)cc12 [Example 10, (R)-1-Phenylsulfonyl-5-hydroxy-3-(1-methyl-2-pyrrolidinylmethyl)indole]	≥ 8.00	–
CN1CCC[C@@H]1Cc1cn(S(=O)(=O)c2ccccc2)c2ccc(OCc3ccccc3)cc12 [Example 7e, (R)-5-Benzyloxyindole-3-(1-methyl-2-pyrrolidinylmethyl)-1-phenylsulfonylindole]	–	pKi (human 5-HT6 receptor [1]; read-out: Ki): ≥ 9.00
CN1CCC[C@@H]1Cc1cn(C(=O)c2ccccc2)c2ccc(Br)cc12 [Example 7d, (R)-1-Benzoyl-5-bromo-3-(1-methyl-2-pyrrolidinylmethyl) indole]	≥ 9.00	–
CN1CCC[C@@H]1Cc1cn(C(=O)c2ccccc2)c2ccc(Cl)cc12 [Example 5p, (R)-1-Benzoyl-5-chloro-3-(1-methyl-2-pyrrolidinylmethyl)indole]	≥ 9.00	–
CN1CCC[C@@H]1Cc1cn(C(=O)c2ccc(F)cc2)c2ccc(Cl)cc12 [Example 5r, (R)-5-Chloro-1-(4-fluorobenzoyl)-3-(1-methyl-2-pyrrolidinylmethyl)indole]	–	greater affinity for human 5-HT6 receptor relative to human 5-HT2C (human 5-HT2C receptor): ≥ 36 fold; pEC50 (human 5-HT6 receptor [2]): 8.22; greater affinity for human 5-HT6 receptor relative to human 5-HT7 (human 5-HT7 receptor): ≥ 36 fold

From patent publication US6100291A, “Pyrrolidine-indole compounds having 5-HT6 affinity” (Allelix Biopharmaceuticals Inc., priority 1998, dated 2000)
